Test results taken from paper PMC7497641, “Neurotropic activity and safety of methylene-cycloalkylacetate (MCA) derivative 3-(3-allyl-2-methylenecyclohexyl) propanoic acid” (ACS Chemical Neuroscience, 2020).

Tests used:
Test in all cases: PhosphoSens CSox based kinase assay
Assay type in all cases: biochemical
[1] = target: T1, AKT1 (Homo sapiens, UniProt P31749); conditions: 5 μM HU-MCA-13
T1 construct: AKT1, amino acids 104-480, Carna (cat. & lot #: 01 -101,; purchased Carna 01-101
Description: (§1) The initial focus was to measure the modulatory activity in vitro of MCA-13 on protein kinases which were reported to be involved in induction of neurite outgrowth.[18],[43] To do this, we took advantage of a powerful method to measure the activity of recombinant protein kinases using a homogeneous and continuous (kinetic) format, where the level of chelation-enhanced fluorescence (CHEF) is directly proportional to the amount of phosphorylated, real-time sensors consisting of sulfonamido-oxine (Sox) chromophore linked to a peptide or protein substrates of selective kinases.[44] This assay is ideal for elucidating drug mechanism of action and is increasingly being applied earlier in the drug development workflow to address off target effects and/or the challenges and opportunities for next generation protein kinase inhibitors.[45] Since neurotrophins induce neurite outgrowth by activating the different tropomyosin kinase receptors (Trk), and small molecules agonists of Trk receptors can selectively activate Trks,[46] we first investigated the ability of HU-MCA-13 to modulate TRKA, TRKB and TRKC phosphorylation activities (Supporting Information, Figure S3-2). […] The TRKs constructs used in the assay contained only the intracellular kinase domain (amino acids 442–786) and therefore presently we cannot exclude that HU-MCA-13 may interact with the TRKs extracellular domain thereby inducing the conformational change required for the kinase domain activation. […] Moreover, no effects of HU-MCA-13were found on other kinases (ASK1, ERK2, JNK3, p38α, CDK5, KDR-VEGFR, AKT1, GSK3β, PDGFRβ, PKACα, PKC, CK1, IKKβ) which stimulate neurite outgrowth. Also, no effects were observed of HU-MCA-13 on kinases (EGFR, IGF1R, FGFR 1 and 2, CAMK2α,) which inhibit neurite outgrowth or calcineurin phosphatase which dephosphorylates the neurite outgrowth stimulatory protein, cofilin.[47]
(§2) MCA-13 safety b y in vitro eval uati on usi ng Phos pho Sens®C Soxb ased kinase […]
(§3) Method: Kinase Activity Measurements
(§4) Kinase activity was measured continuously using the PhosphoSens®technology (AssayQuant Technologies Inc., Marlborough, MA) according to the manufacturers’ recommendations (http://www.assayquant.com/) . This one-step homogeneous assay use s chelation-enh anced fluorescence via optimized substrate sensors unique for each kinase, containing the unnatural fluorogenic amino-acid Sox.
(§5) The following kinases which, upon stimulation or inhibition with small molecule modulators, induced neurite outgrowth, were obtained from different companies and were used in this study at the following concentrations: 2.
(§6) 25 µL final reaction volume including : 2.5 µl Sox-based substrate (10 x), 17.5 µl reaction mix with AT P, 5.0 µL Kinase [5x in EDB (Enzyme Dilution Buffer : 20 mM TRIS, pH 8.0, 0.01% Brij -35, 0.1 mM EGTA, 5% Glycerol, 1 mM DTT, 1 mg/mL Bovine Serum Albumin]. 5-45 min preincubation (all except EDB/kinase) at 30 °C of substrate in reaction mix and ATP ensuring that the progress kinetic curve for the background fluorescence w as flat. Reaction was run at 30 °C for […]
(§7) Final Reaction Conditions.
(§8) Protein kinase activity was determined in 54 mM HEPES, pH 7.5 1 mM ATP 1.2 mM DTT (none in ASK1) 0.012% Brij-35 1% glycerol 0.2 mg/ml BSA 0.52 mM EGTA (none in assays of CAMK2α, PKCε, PKCι, Calcineurin A/B) 140 µM phosphatidylserine/3.8 µM diacylglycerol (PKCε, PKCι only) 5 ng/µl calmodulin/0.4 mM CaCl2 (CAMK2α, Calcineurin A/B only) 10 mM […]
(§9) IKKβ, AKT1, GSK3β, PKCε, PKCι, PKACα, KDR, CK1δ, EGFR, ASK1, IGF1R, CAMK2α, DLK, FGFR2, FGFR1) in the presence or absence of 5 µ M H U-MCA-13 test compound. All components e xcept enzyme were equilibrated to 30 °C prior to setting up reactions run in Corning, 384-well, white flat round bottom polystyrene NBS microplates (Cat. #3824) after sealing using optically-clear adhesive film [TopSealA -Plus plate seal, PerkinElmer (Cat. #6050185)], applied with a roller to eliminate evaporation and resulting drift. Europium was added to a final […]

[2] = target: T2, CDK5 (Homo sapiens, UniProt Q00535); conditions: 5 μM HU-MCA-13
T2 construct: CDK5/p25, amino acids 1 -292/99 -307, Carna; purchased Carna 04-106
Description: as §1, §2, §3, §4, §5, §6, §7, §8, §9

[3] = target: T3, CK1 (Homo sapiens, UniProt P48730); conditions: 5 μM HU-MCA-13
T3 construct: CK1δ, amino acids 1 -294, Carna; purchased Carna 03-103
Description: as §1, §2, §3, §4, §5, §6, §7, §8, §9

[4] = target: T4, ERK2 (Homo sapiens, UniProt P28482); conditions: 5 μM HU-MCA-13
T4 construct: ERK2, amino acids 1-360, Carna; purchased Carna 04-143
Description: as §1, §2, §3, §4, §5, §6, §7, §8, §9

[5] = target: T5, FGFR 1 (Homo sapiens, UniProt P11362); conditions: 5 μM HU-MCA-13
T5 construct: 396-820, Carna (cat. & lot #: 08); purchased Carna 08-133
Description: as §1, §2, §3, §4, §5, §6, §7, §8, §9

[6] = target: T6, GSK3β (Homo sapiens, UniProt P49841); conditions: 5 μM HU-MCA-13
T6 construct: GSK3β, amino acids 1 -420, Carna (cat. & lot #: 04-141/13CBS-; purchased Carna 04-141
Description: as §1, §2, §3, §4, §5, §6, §7, §8, §9

[7] = target: T7, IKKβ (Homo sapiens, UniProt O14920); conditions: 5 μM HU-MCA-13
T7 construct: purchased Invitrogen PV3836
Description: as §1, §2, §3, §4, §5, §6, §7, §8, §9

[8] = target: T8, KDR-VEGFR (Homo sapiens, UniProt P35968); conditions: 5 μM HU-MCA-13
T8 construct: KDR, amino acids 790 -1356, Carna (cat. & lot #: 08 -191,; purchased Carna 08-191
Description: as §1, §2, §3, §4, §5, §6, §7, §8, §9

[9] = target: T9, PDGFRβ (Homo sapiens, UniProt P09619); conditions: 5 μM HU-MCA-13
T9 construct: PDGFRβ, amino acids 557 -1106, Carna; purchased Carna 08-158
Description: as §1, §2, §3, §4, §5, §6, §7, §8, §9

[10] = target: T10, PKACα (Homo sapiens, UniProt P17612); conditions: 5 μM HU-MCA-13
T10 construct: PKACα, amino acids 1 -351, Carna (cat. & lot #: 01 -127/10CBS -0315N)/; purchased Carna 01-127
Description: as §1, §2, §3, §4, §5, §6, §7, §8, §9

[11] = target: T11, TRKC (Homo sapiens, UniProt Q16288); conditions: 5 μM HU-MCA-13; no effect on initial rate, small delay in later stage of progress curve
T11 construct: TRKC, amino acids 45 6-825, BPS Bio; purchased BPS Bio 40282 (lot 140205-G2)
Description: as §1, §2, §3, §4, §5, §6, §7, §8, §9

[12] = target: T12, p38α (Homo sapiens, UniProt Q16539); conditions: 5 μM HU-MCA-13
T12 construct: p38α, amino acids 9-352, Carna (cat. & lot #: 04-152,; purchased Carna 04-152
Description: as §1, §2, §3, §4, §5, §6, §7, §8, §9

T3 sequence (P48730 1-294): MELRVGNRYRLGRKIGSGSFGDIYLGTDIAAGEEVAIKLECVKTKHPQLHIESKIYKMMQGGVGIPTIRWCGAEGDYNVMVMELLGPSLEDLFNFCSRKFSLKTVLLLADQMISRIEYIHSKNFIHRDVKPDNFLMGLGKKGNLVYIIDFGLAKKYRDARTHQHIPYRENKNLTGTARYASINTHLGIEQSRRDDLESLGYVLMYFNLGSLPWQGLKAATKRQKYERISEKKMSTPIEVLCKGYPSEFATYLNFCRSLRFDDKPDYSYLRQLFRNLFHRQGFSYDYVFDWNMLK
T5 sequence (P11362 398-822): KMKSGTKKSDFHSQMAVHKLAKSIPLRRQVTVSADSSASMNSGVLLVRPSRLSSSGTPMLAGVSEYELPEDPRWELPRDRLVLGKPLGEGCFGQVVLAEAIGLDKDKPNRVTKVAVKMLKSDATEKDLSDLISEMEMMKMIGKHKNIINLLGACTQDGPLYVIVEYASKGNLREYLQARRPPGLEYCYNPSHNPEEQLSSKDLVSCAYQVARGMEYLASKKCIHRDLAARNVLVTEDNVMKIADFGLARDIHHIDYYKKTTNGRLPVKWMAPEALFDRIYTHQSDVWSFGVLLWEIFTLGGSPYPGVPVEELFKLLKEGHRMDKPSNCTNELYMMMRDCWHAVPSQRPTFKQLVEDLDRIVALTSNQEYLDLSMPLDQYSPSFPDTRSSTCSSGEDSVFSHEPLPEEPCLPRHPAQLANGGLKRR
T9 sequence (P09619 557-1106): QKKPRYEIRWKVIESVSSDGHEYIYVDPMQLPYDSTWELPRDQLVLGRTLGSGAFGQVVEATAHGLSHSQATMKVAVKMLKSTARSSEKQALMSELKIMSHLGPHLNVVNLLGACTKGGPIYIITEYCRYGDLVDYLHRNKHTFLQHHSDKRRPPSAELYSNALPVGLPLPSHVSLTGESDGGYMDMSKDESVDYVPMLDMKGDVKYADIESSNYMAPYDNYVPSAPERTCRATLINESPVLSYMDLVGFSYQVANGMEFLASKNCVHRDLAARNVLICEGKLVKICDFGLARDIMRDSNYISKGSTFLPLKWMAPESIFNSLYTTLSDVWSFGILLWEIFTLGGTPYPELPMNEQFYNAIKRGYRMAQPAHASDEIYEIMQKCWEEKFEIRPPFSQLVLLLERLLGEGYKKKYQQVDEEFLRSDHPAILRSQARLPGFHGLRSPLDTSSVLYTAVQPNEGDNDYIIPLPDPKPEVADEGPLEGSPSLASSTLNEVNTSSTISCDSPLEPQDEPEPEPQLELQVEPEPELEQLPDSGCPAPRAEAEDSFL
T1 sequence (P31749 104-480): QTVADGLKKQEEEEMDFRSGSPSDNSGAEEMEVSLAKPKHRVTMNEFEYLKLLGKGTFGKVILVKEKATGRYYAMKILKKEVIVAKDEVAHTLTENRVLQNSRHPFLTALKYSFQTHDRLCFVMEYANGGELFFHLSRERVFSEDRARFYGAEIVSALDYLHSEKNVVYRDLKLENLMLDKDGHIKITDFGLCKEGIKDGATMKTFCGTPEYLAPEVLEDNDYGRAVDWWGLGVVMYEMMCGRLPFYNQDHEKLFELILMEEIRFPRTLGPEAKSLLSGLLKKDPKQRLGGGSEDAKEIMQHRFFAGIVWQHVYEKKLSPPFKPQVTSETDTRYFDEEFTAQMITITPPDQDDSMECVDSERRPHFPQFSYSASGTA
T8 sequence (P35968 790-1356): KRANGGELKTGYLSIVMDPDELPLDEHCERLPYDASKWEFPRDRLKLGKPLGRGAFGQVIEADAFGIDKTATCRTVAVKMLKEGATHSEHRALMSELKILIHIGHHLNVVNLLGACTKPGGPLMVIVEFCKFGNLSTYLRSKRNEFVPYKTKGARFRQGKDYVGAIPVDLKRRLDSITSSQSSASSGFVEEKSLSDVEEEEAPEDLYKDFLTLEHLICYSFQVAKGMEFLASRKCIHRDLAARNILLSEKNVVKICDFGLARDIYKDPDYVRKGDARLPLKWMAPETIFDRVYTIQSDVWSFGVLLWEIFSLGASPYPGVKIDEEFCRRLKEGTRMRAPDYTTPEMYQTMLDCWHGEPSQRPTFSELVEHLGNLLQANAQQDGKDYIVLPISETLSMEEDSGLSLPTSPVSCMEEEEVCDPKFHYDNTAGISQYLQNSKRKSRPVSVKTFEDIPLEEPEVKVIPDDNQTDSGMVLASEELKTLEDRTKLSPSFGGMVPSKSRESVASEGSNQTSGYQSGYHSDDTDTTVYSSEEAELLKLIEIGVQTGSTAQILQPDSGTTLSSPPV
T4 sequence (P28482 whole entry, the tested form may be a part): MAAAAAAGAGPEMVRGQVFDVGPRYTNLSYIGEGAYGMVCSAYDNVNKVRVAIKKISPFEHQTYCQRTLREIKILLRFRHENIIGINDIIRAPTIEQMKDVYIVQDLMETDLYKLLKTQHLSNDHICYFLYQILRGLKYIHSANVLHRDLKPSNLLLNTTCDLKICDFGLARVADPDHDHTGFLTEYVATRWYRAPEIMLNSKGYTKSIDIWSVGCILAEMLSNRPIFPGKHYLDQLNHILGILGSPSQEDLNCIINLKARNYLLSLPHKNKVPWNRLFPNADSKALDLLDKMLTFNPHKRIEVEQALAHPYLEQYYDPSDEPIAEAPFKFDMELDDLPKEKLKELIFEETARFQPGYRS
T6 sequence (P49841 whole entry, the tested form may be a part): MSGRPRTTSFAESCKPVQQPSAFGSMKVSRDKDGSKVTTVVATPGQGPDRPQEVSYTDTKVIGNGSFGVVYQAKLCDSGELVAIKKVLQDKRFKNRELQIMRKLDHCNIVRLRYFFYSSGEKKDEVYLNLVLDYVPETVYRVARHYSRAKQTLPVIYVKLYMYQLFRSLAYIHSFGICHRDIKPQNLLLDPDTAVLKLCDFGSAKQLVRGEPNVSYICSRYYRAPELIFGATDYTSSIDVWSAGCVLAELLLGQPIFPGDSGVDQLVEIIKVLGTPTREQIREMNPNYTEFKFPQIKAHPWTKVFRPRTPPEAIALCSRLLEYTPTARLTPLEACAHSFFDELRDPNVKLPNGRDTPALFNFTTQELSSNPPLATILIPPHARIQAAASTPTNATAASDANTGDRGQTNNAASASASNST
T2 sequence (Q00535 whole entry, the tested form may be a part): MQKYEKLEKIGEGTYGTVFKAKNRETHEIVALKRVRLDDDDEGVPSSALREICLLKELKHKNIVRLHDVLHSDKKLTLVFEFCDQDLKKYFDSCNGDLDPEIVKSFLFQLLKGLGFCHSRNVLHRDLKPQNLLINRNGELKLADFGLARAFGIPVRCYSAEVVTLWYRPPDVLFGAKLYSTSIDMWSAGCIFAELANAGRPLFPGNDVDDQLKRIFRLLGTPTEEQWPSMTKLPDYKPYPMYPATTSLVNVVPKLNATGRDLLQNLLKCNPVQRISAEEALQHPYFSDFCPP
T2 sequence (Q15078 99-307 partner limits assumed): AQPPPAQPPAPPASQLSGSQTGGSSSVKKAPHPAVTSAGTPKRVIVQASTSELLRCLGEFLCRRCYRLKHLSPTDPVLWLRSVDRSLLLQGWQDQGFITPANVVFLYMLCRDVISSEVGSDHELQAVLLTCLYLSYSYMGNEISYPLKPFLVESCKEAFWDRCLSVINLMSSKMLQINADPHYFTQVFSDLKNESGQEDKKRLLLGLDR
T12 sequence (Q16539 9-352): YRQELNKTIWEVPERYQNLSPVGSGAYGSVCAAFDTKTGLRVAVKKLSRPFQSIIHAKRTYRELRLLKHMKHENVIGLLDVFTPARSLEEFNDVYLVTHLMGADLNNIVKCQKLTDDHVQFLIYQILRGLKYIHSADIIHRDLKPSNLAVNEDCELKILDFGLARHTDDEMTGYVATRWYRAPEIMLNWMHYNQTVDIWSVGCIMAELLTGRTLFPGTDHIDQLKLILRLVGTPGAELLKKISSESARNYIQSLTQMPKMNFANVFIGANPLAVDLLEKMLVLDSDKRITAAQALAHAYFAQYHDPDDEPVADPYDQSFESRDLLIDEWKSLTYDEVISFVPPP
T7 sequence (O14920 whole entry): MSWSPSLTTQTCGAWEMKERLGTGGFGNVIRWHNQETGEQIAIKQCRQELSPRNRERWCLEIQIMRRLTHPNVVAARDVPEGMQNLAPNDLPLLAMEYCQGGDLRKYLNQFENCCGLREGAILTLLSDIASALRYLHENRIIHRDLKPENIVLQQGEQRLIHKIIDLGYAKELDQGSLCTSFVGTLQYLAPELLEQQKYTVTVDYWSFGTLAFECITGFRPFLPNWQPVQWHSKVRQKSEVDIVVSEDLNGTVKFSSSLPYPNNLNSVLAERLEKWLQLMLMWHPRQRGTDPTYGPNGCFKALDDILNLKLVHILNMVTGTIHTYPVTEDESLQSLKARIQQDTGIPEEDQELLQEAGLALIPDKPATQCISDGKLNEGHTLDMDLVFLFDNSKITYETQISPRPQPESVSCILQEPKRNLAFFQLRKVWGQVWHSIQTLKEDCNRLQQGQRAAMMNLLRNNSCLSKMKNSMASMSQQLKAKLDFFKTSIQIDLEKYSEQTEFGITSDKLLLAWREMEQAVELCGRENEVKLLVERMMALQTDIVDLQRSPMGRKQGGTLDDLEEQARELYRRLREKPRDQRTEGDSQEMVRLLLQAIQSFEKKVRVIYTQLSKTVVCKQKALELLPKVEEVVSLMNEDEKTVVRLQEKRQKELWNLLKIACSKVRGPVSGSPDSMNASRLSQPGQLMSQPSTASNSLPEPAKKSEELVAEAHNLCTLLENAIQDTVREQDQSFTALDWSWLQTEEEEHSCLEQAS

## C=CCC1CCCC(CCC(=O)O)C1=C (stereo not drawn) [HU-MCA-13, 3-(3-allyl-2-methylenecyclohexyl)propanoic acid]
[1]
  effect on kinase activity: no effects
[2]
  effect on kinase activity: no effects
[3]
  effect on kinase activity: no effects
[4]
  effect on kinase activity: no effects
[5]
  effect on kinase activity: no effects
[6]
  effect on kinase activity: no effects
[7]
  effect on kinase activity: no effects
[8]
  effect on kinase activity: no effects
[9]
  effect on kinase activity: no effects
[10]
  effect on kinase activity: no effects
[11]
  modulation of phosphorylation activity: slight inhibitory effect
[12]
  effect on kinase activity: no effects
